This data set deals with Phospholipidosis. In words: Literature-mined public compounds from Kruhlak et al phospholipidosis modelling dataset.
Regarding `CCCCNC(=O)NS(=O)(=O)c1ccc(N)cc1` [CARBUTAMIDE], the Phospholipidosis entry was “Negative: based on the absence of positive reported data from WMDD”.
Next, `CCCN1C[C@H](CSC)C[C@@H]2c3cccc4[nH]cc(c34)C[C@H]21` [PERGOLIDE]: “Negative: based on the absence of positive reported data from WMDD”.
Next, `CN1CCC(=C2c3ccccc3CC(=O)c3sccc32)CC1` [KETOTIFEN]: “Negative: based on the absence of positive reported data from WMDD”.
Next, `Cc1ncc([N+](=O)[O-])n1CCO` [METRONIDAZOLE]: “Negative: based on the absence of positive reported data from WMDD”; `Cc1ccc(C(=O)C(C)CN2CCCCC2)cc1` (stereo unspecified) [TOLPERISONE]: “Negative: based on the absence of positive reported data from WMDD”; `CCC1(c2ccc(N)cc2)CCC(=O)NC1=O` (stereo unspecified) [AMINOGLUTETHIMIDE]: “Negative: based on the absence of positive reported data from WMDD”.
Take `CN1CCN(C(c2ccccc2)c2ccc(Cl)cc2)CC1` (stereo unspecified) [CHLORCYCLIZINE]: the Phospholipidosis entry is on record as “Positive: strong inducer confirmed by electron microscopy”.
Regarding `CC(C)COCC(CN(Cc1ccccc1)c1ccccc1)N1CCCC1` (stereo unspecified) [BEPRIDIL], the Phospholipidosis entry is “Negative: based on the absence of positive reported data from WMDD”.
Next, `CCCSc1ccc2nc(NC(=O)OC)[nH]c2c1` [ALBENDAZOLE]: “Negative: based on the absence of positive reported data from WMDD”; `CCOc1ccc(NC(C)=O)cc1` [PHENACETIN]: “Positive: strong inducer confirmed by electron microscopy”.
Take `NC[C@H]1O[C@H](O[C@H]2[C@H](O)[C@@H](O[C@H]3O[C@H](CO)[C@@H](O)[C@H](N)[C@H]3O)[C@H](N)C[C@@H]2N)[C@H](O)[C@@H](O)[C@@H]1O` [KANAMYCIN A]: the Phospholipidosis entry was “Negative: based on the absence of positive reported data from WMDD”.
The same measure for `Clc1ccc(C/C(=C\CN2CCCC2)c2ccccc2)cc1` [PYRROBUTAMINE]: “Negative: based on the absence of positive reported data from WMDD”.
The same measure for `CC(=O)[C@@]1(O)CC[C@H]2[C@@H]3C=C(Cl)C4=CC(=O)[C@@H]5C[C@@H]5[C@]4(C)[C@H]3CC[C@@]21C` [CYPROTERONE]: “Negative: based on the absence of positive reported data from WMDD”; for `NC(=O)N1c2ccccc2C=Cc2ccccc21` [CARBAMAZEPINE]: “Negative: confirmed by electron microscopy”; for `CC1(C)N=C(N)N=C(N)N1OCc1ccc(Cl)c(Cl)c1` [CLOCIGUANIL]: “Positive: weak inducer based on presence of foamy macrophages and cytoplasmic vacuolations”.
Next, `CC(=O)OCC(=O)[C@@]1(O)[C@@H](C)C[C@H]2[C@@H]3CCC4=CC(=O)C=C[C@]4(C)[C@@]3(F)[C@@H](O)C[C@@]21C` [BETAMETHASONE ACETATE]: “Negative: based on the absence of positive reported data from WMDD”.
For `CC(C)NCC(O)c1ccc(NS(C)(=O)=O)cc1` (stereo unspecified) [SOTALOL], the Phospholipidosis result is reported as “Negative: confirmed by electron microscopy”.
Next, `CC[C@@H]1C(=O)OC[C@@H]1Cc1cncn1C` [PILOCARPINE]: “Negative: based on the absence of positive reported data from WMDD”.
Next, `CC(C)N(CCC(C(N)=O)(c1ccccc1)c1ccccn1)C(C)C` (stereo unspecified) [DISOPYRAMIDE]: “Negative: based on the absence of positive reported data from WMDD”.
Next, `CC/C(=C(\c1ccccc1)c1ccc(OCCN(C)C)cc1)c1ccccc1` [TAMOXIFEN]: “Positive: strong inducer confirmed by electron microscopy”.
With `c1ccc(CN(CC2=NCCN2)c2ccccc2)cc1` [ANTAZOLINE], the Phospholipidosis result is recorded as “Negative: based on the absence of positive reported data from WMDD”.
The same measure for `Clc1ccccc1CN1CCc2sccc2C1` [TICLOPIDINE]: “Negative: based on the absence of positive reported data from WMDD”; for `C[C@H]1COc2c(N3CCN(C)CC3)c(F)cc3c(=O)c(C(=O)O)cn1c23.C[C@H]1COc2c(N3CCN(C)CC3)c(F)cc3c(=O)c(C(=O)O)cn1c23.O` [LEVOFLOXACIN]: “Negative: confirmed by electron microscopy”.
The same measure for `COCCCC/C(=N\OCCN)c1ccc(C(F)(F)F)cc1` [FLUVOXAMINE]: “Positive: weak inducer based on presence of foamy macrophages and cytoplasmic vacuolations”; for `CCN(CC)C(=O)C1CN2CCc3cc(OC)c(OC)cc3C2CC1OC(C)=O` (stereo unspecified) [BENZQUINAMIDE]: “Negative: based on the absence of positive reported data from WMDD”.
For `Oc1ncnc2[nH]ncc12` [ALLOPURINOL], the Phospholipidosis entry was “Positive: weak inducer based on presence of foamy macrophages and cytoplasmic vacuolations”.
The same measure for `COc1ccccc1OCC(O)COC(N)=O` (stereo unspecified) [METHOCARBAMOL]: “Negative: based on the absence of positive reported data from WMDD”; for `CC[N+](CC)(CC)CCOc1cccc(OCC[N+](CC)(CC)CC)c1OCC[N+](CC)(CC)CC.[I-].[I-].[I-]` [GALLAMINE TRIETHIODIDE]: “Negative: based on the absence of positive reported data from WMDD”; for `NCC(=O)O` [GLYCINE]: “Negative: based on the absence of positive reported data from WMDD”.
Next, `CNS(=O)(=O)Cc1ccc2[nH]cc(CCN(C)C)c2c1`: “Negative: confirmed by electron microscopy”.
With `CN(C)CCC(c1ccccc1)c1ccccn1` (stereo unspecified) [PHENIRAMINE], the Phospholipidosis result was “Negative: based on the absence of positive reported data from WMDD”.
In the case of `CN1CCN2c3ccccc3Cc3ccccc3C2C1` (stereo unspecified) [MIANSERIN], the Phospholipidosis result was “Positive: weak inducer based on presence of foamy macrophages and cytoplasmic vacuolations”.
As to `Nc1c(Br)cc(Br)cc1CN[C@H]1CC[C@H](O)CC1` [AMBROXOL], the Phospholipidosis entry was “Positive: weak inducer based on presence of foamy macrophages and cytoplasmic vacuolations”.
Turning to `CCOC(=O)/C=C(C)/C=C/C=C(C)/C=C/c1c(C)cc(OC)c(C)c1C` [ETRETINATE], the Phospholipidosis result is “Negative: based on the absence of positive reported data from WMDD”.
Take `CC1=C(/C=C/C(C)=C/C=C/C(C)=C/CO)C(C)(C)CCC1` [RETINOL]: the Phospholipidosis entry is reported as “Negative: based on the absence of positive reported data from WMDD”.
As for `CN(CC(=O)N1CCOCC1)Cc1c(Cl)cccc1NC(=O)c1ccccc1` [FOMINOBEN], the Phospholipidosis entry was “Negative: based on the absence of positive reported data from WMDD”.
Next, `CNCCCC12CCC(c3ccccc31)c1ccccc12` [MAPROTILINE]: “Positive: strong inducer confirmed by electron microscopy”.
Consider `C=CCC1(CC(C)C)C(=O)NC(=O)NC1=O` [BUTALBITAL], for which the Phospholipidosis entry is recorded as “Negative: based on the absence of positive reported data from WMDD”.
Consider `N[C@@H](CSCC(=O)O)C(=O)O` [CARBOCYSTEINE], for which the Phospholipidosis result is “Negative: based on the absence of positive reported data from WMDD”.
Next, `O[C@@H]([C@H](O)[C@H](O)CBr)[C@H](O)CBr` [MITOBRONITOL]: “Negative: based on the absence of positive reported data from WMDD”.
Consider `CC(=O)OCCN1CCN(CCCN2c3ccccc3Sc3ccc(Cl)cc32)CC1` [THIOPROPAZATE], for which the Phospholipidosis result is reported as “Negative: based on the absence of positive reported data from WMDD”.
As for `O=C(CCCN1CCC(O)(c2ccc(Cl)cc2)CC1)c1ccc(F)cc1` [HALOPERIDOL], the Phospholipidosis entry was “Positive: strong inducer confirmed by electron microscopy”.
Next, `CC(C)=CCC1C(=O)N(c2ccccc2)N(c2ccccc2)C1=O` [FEPRAZONE]: “Negative: based on the absence of positive reported data from WMDD”; `COc1nccnc1NS(=O)(=O)c1ccc(N)cc1`: “Negative: based on the absence of positive reported data from WMDD”; `CCC(c1ccccc1)c1c(O)c2ccccc2oc1=O` (stereo unspecified) [PHENPROCOUMON]: “Negative: based on the absence of positive reported data from WMDD”.
In the case of `CCN(CC)C(C)CN1c2ccccc2Sc2ccccc21` (stereo unspecified) [ETHOPROPAZINE], the Phospholipidosis result is on record as “Negative: based on the absence of positive reported data from WMDD”.
Turning to `NC[C@@H]1O[C@H](O[C@H]2[C@@H](O)[C@H](O[C@@H]3[C@@H](O)[C@H](N)C[C@H](N)[C@H]3O[C@H]3O[C@H](CO)[C@@H](O)C[C@H]3N)O[C@@H]2CO)[C@H](N)[C@@H](O)[C@@H]1O[C@H]1O[C@H](CO)[C@@H](O)[C@H](O)[C@@H]1O` [LIVIDOMYCIN], the Phospholipidosis entry was “Negative: based on the absence of positive reported data from WMDD”.
The same measure for `CC[N+]1(C)CCCC(OC(=O)C(O)(c2ccccc2)c2ccccc2)C1.[Br-]` (stereo unspecified) [PIPENZOLATE BROMIDE]: “Negative: based on the absence of positive reported data from WMDD”.
Regarding `O=C(O)CCC(=O)O` [SUCCINIC ACID], the Phospholipidosis result is “Negative: based on the absence of positive reported data from WMDD”.
The same measure for `CNC(=O)c1c(I)c(NC(C)=O)c(I)c(C(=O)O)c1I` [IOTHALAMIC ACID]: “Negative: based on the absence of positive reported data from WMDD”; for `NS(=O)(=O)c1cc2c(cc1Cl)NC(C(Cl)Cl)NS2(=O)=O` (stereo unspecified) [TRICHLORMETHIAZIDE]: “Negative: based on the absence of positive reported data from WMDD”; for `O=c1[nH]c(=O)n([C@H]2C[C@H](O)[C@@H](CO)O2)cc1F` [FLOXURIDINE]: “Negative: based on the absence of positive reported data from WMDD”.
Next, `C=CC[C@]1(O)CC[C@H]2[C@@H]3CCC4=CCCC[C@@H]4[C@H]3CC[C@@]21C` [ALLYLESTRENOL]: “Negative: based on the absence of positive reported data from WMDD”; `NC(=O)NC(=O)Cc1ccccc1` [PHENACEMIDE]: “Negative: based on the absence of positive reported data from WMDD”; `COCCOc1cnc(NS(=O)(=O)c2ccccc2)nc1` [GLYMIDINE]: “Negative: based on the absence of positive reported data from WMDD”.
The same measure for `CO/N=C(\C(=O)N[C@@H]1C(=O)N2C(C(=O)O)=C(CSc3nc(=O)c(=O)[nH]n3C)CS[C@H]12)c1csc(N)n1` [CEFTRIAXONE]: “Negative: based on the absence of positive reported data from WMDD”.

Values taken from ChEMBL document CHEMBL1697821, “Development of a phospholipidosis database and predictive quantitative structure-activity relationship (QSAR) models” (Toxicol Mech Methods, 2008).
